Patent US9586967B2, “Pyrrolo pyrimidine derivative” (ONO PHARMACEUTICAL CO., LTD., priority 2013, dated 2017)
pIC50: −log10 of the molar value. Counter-ions that a name gives are not always drawn.

Tests used:
[1] = target: T1, Axl enzyme (Homo sapiens, UniProt P30530); assay: Measurement of Axl inhibitory activity (in vitro test, LanthaScreen TR-FRET); type: biochemical; settings: Fluorescein-Poly GT substrate, ATP, read-out: Axl enzyme inhibitory activity, value of 50% inhibition rate (IC50 value)
T1 sequence (P30530 26-894): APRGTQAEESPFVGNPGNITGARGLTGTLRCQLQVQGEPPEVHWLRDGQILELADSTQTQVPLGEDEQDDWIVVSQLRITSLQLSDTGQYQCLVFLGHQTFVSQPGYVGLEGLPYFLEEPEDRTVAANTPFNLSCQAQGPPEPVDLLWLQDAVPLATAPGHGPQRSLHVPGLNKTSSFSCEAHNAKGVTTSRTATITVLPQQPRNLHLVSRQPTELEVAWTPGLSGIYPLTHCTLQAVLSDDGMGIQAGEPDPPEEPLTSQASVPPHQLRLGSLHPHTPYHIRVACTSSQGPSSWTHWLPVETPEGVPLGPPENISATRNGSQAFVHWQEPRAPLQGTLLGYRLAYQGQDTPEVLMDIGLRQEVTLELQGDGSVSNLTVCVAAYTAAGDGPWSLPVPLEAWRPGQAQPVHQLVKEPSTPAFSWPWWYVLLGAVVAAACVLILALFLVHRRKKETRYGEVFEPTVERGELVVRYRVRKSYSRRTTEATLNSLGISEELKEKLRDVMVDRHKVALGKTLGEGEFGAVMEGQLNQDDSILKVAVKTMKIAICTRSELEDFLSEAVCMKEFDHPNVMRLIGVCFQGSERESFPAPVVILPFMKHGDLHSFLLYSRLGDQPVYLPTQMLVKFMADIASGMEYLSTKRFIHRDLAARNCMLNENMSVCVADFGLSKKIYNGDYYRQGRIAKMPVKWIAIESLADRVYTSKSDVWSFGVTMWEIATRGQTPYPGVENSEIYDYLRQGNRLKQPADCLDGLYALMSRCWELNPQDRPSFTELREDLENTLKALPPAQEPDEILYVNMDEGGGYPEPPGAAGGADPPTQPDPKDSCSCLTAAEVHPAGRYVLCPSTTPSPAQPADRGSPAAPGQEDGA
Method: Measurement of Axl Inhibitory Activity (In Vitro Test)
The Axl enzyme inhibitory activity was measured by using LanthaScreen (registered trademark) system (Invitrogen) based on the attached instruction. The reagents used are shown below.
Reaction buffer solution: A solution containing 50 mmol/L HEPES (pH7.5), 0.01% Brij35, 10 mmol/L MgCl2 and 1 mmol/L EGTA was prepared by using purified water.
Test substance solution: A solution containing a test compound of 5-fold concentration with respect to the final concentration was prepared by 20-fold diluting a DMSO solution of the test compound of each concentration with the reaction buffer solution.
Enzyme solution: A solution containing 400 ng/mL Axl enzyme was prepared by using the reaction buffer solution.
Substrate solution: A solution containing 45 μmmol/L ATP and 500 nmmol/L Fluorescein-Poly GT (Invitrogen) was prepared by using the reaction buffer solution.
Detection solution: A solution containing 20 mM EDTA and 4 nM PY20 (Invitrogen) was prepared by using Dilution B (Invitrogen).
A 10 mmol/L DMSO solution of the test compound was dispensed into a 96-well plate (Nunc), and, furthermore, a 3-fold dilution series was prepared using DMSO. In each well of the 96-well plate for measurement, 5 μL each of the reaction buffer solution containing DMSO was added to a Blank group and a medium group, and 5 μL of the test substance solution was added to the test substance group, respectively. […] After standing still, fluorescence intensity at 520 nm and 495 nm at the time of irradiation with exciting light of 340 nm was measured by using Analyst GT (Molecular Devices). The phosphorylation of the artificial substrate was quantified by Time-resolved Fluorescence Resonance Energy Transfer (TR-FRET). The TR-FRET ratio was calculated by dividing 520 nm fluorescence signal by 495 nm fluorescence signal for each well, and the inhibition rate (%) in the test compound group was calculated based on the following mathematical formula. […]

[2] = tested on: Ba/F3 Axl; assay: Measurement of proliferation suppression rate using mouse pro-B cell line (Ba/F3 Axl) stably expressing Axl; type: cell-based; settings: BaF3, Ba/F3 Axl cells, 48 hours, CELLTITER-GLO, read-out: Proliferation suppression, value of 50% inhibition rate (IC50 value)
Method: Measurement of Proliferation Suppression Rate by Using Mouse Pro-B Cell Line (Ba/F3 Axl) Stably Expressing Axl
A 0.1 mmol/L DMSO solution of the test compound was dispensed into a 96-well plate, and further a 3-fold dilution series was prepared using DMSO. DMSO solutions of test compounds, having various concentrations, were further 500-fold diluted with a RPMI1640 medium (containing 10% HI-FBS and 1% penicillin) and a diluted solution of the test compound having […] with respect to the final concentration was prepared. In each well of the 96-well plate (BD Biosciences) for measurement, 50 μL of a RPMI medium was added to the Blank group, 50 μL of a RPMI medium containing 0.2% DMSO was added to the medium group, and 50 μL of the diluted solution of the test compound was added to the test compound group, respectively. Ba/F3 Axl was diluted with a medium to have a density of 2×10^5 cells/mL to prepare a cell suspension. In each well of the 96-well plate for measurement, 50 μL each of the RPMI medium was added to the Blank group, and 50 μL each of the cell suspension was added to the medium group and the test compound group, respectively, and the groups were stood still at 37° C. at 5% CO2 for 48 hours. After standing still, Relative Light Unit (RLU) was measured by using CELLTITER-GLO (registered trademark) LUMINESCENT CELL VIABILITY ASSAY (Promega). The measurement was carried out according to the attached instruction. To each well, 100 μL each of light-emitting solution was added. The plate was stirred at room temperature for 3 min and then stood still at room temperature with light shielded for 10 minutes, and RLU was measured by using Microplate Reader (SpectraMax M5e, Molecular Devices). The average values of RLU of the Blank group and the medium group were respectively calculated, and the proliferation suppression rate of the test compound group was calculated. Proliferation suppression rate (%)={1−(RLU of test compound group−A)/(B−A)}×100 [Math. 2] A: Average value of RLU of Blank group B: Average value of RLU of medium group […]

| pIC50 [1] | pIC50 [2] | SMILES |
| --- | --- | --- |
| 8.10 | 7.97 | Cn1cc(-c2ccc(NC(=O)c3cc(C(F)(F)F)cn(-c4ccccc4)c3=O)cc2)c2c(N)ncnc21 [Example 30, N-[4-(4-amino-7-methyl-7H-pyrrolo[2,3-d]pyrimidin-5-yl)phenyl]-2-oxo-1-phenyl-5-(trifluoromethyl)-1,2-dihydro-3-pyridinecarboxamide trifluoroacetate] |
| 8.01 | 8.15 | Cn1cc(-c2ccc(NC(=O)c3cc4c(n(-c5ccccc5)c3=O)CC3(CC3)CC4=O)nc2)c2c(N)ncnc21 [Example 45(24), N-[5-(4-amino-7-methyl-7H-pyrrolo[2,3-d]pyrimidin-5-yl)-2-pyridinyl]-2′,5′-dioxo-1′-phenyl-2′,5′,6′,8′-tetrahydro-1′H-spiro[cyclopropane-1,7′-quinoline]-3′-carboxamide] |
| 8.77 | 9.10 | CC#CC(=O)NCc1ccc(C(=O)Nc2ccc(-c3cn(C)c4ncnc(N)c34)cc2)c(=O)n1-c1ccccc1 [Example 26, N-[4-(4-amino-7-methyl-7H-pyrrolo[2,3-d]pyrimidine-5-yl)phenyl]-6-[(2-butynoylamino)methyl]-2-oxo-1-phenyl-1,2-dihydro-3-pyridinecarboxamide] |
